Assay results: patent US20250332139A1, “PS[…] AND THEIR USE FOR TREATING […] AND NE[…] DISORDERS” (Transcend Therapeutics, Inc., priority 2021, published 2025)

Key:
[1] = target: norepinephrine transporter (NET) (Rattus norvegicus, UniProt Q63380); test: Competitive radioligand binding, [3H]nisoxetine, rat brain lysates
Experimental: Radioligands used were: [^3H] Citalopram (PerkinElmer NET1039250UC); [^3H] Nisoxetine (PerkinElmer NET1084250UC); [^3H] WIN35428 (PerkinElmer NET1033250UC). […] Rat brains were dissected and tissue was homogenized in cold lysis buffer, centrifged at 100×g for 2 min and the supernatant was placed in a fresh tube. Supernatant was centrifuged at 13,000×g for 10 min at 4° C. to re-pellet the cell lysate. The pellet was resuspended in fresh wash buffer (50 mM Tris-HCl; 5 mM MgCl2; 5 mM EDTA) and centrifuged a third time. The pellet was then resuspended in wash buffer containing 10% sucrose as a cryoprotectant, divided into aliquots (0.3 mL) and stored at −80° C. A sample of the homogenate was analyzed for protein content using the SIGMA® BCA assay. On the day of the assay, the membrane preparation was thawed, and the pellet resuspended in final assay buffer. […] To each well was added 150 μL membranes, 50 μL of non-specific compound or buffer and 50 μL radioligand solution in buffer. […] Ki was subsequently calculated using the Cheng-Prusoff equation.

rats = test: Open field test (OFT); format: in vivo, rat; conditions: for time spent in the center of the open field: methylone single dose IP 30 min before test (5 or 15 mg/kg in b361; 5-30 mg/kg in b50)
Experimental: This behavioral assay, also widely used as an anxiety paradigm, capitalizes on a rodent's innate fear of brightly lit open spaces, which are assumed to induce fear or anxiety. Rodents spend more time hugging the walls of the open field during the test, and these effects correlate to underlying brain regions and mechanisms.
Method: Consecutive beam breaks and/or video-tracking of time spent in the center versus periphery of the open field are measured. Also measured are parameters such as distance traveled and ambulatory activity (horizontal and vertical) for the duration of the test session.
The open field test (OFT) capitalizes on a rodent's innate fear of open spaces to assess anxiety-like behavior. More time spent in the center of an open field reflects an anxiolytic (anti-anxiety) effect.
To investigate whether MBDB has an anti-anxiety (anxiolytic) effect, rats were dosed with MBDB (0.5-30 mg/kg, IP) or vehicle (saline) and 30-minutes later were tested in the open field for 30 minutes. This anxiety test capitalizes on a rodents' innate fear of wide-open spaces and propensity to hug the walls when placed into the open field. Therefore, a drug that increases the time spent in the center of the open field has anxiolytic activity and predicts utility for treating anxiety in humans.

C57BL/6J mice = test: Head-twitch response (HTR) test; format: in vivo, mouse; conditions: i.p., HTR measured for 10 minutes, any dose tested
Experimental: Head twitch response (HTR) was evaluated using C57BL/6J mice (ages 7-10 weeks). Mice were ear tagged at least three days after arrival to the animal facility and allowed to rest for at least three days before behavioral testing. Small magnets (SuperMagnetMan-N45 magnet 3 mm diameter, 0.5 mm thickness) were glued to ear tags (Stoelting-La Pias Aluminum Ear Tags) at least two days before mice were ear tagged. The experimental setup was adapted from Gonzales-Maeso (de la Fuente Revenga et al., 2019) and Kwan (Jefferson et al., 2022; Savalia et al., 2021), including experimental apparatus and MATLAB code for analysis.
Doses were randomly assigned, and age-matched controls were injected with vehicle and randomly interspersed with drug conditions. At least three animals per sex were used for each drug dose and condition. If animals were used in multiple HTR experiments, experimental sessions took place at least one week apart. Two animals were run at a time. Immediately after i.p. injection of psychedelic or entactogen drug, animals were placed in separate plastic boxes within a larger chamber (Home Depot-28 in. W×32 in. H x 21.5 in. D), and HTR was measured for 10 minutes. A small lamp was placed in the back of the larger chamber, and a high-speed camera (Basler-Aca 1920-155 μm) was suspended from the ceiling to record video of the animals in the plastic boxes. […]

Chain of norepinephrine transporter (NET) (Q63380 1-617): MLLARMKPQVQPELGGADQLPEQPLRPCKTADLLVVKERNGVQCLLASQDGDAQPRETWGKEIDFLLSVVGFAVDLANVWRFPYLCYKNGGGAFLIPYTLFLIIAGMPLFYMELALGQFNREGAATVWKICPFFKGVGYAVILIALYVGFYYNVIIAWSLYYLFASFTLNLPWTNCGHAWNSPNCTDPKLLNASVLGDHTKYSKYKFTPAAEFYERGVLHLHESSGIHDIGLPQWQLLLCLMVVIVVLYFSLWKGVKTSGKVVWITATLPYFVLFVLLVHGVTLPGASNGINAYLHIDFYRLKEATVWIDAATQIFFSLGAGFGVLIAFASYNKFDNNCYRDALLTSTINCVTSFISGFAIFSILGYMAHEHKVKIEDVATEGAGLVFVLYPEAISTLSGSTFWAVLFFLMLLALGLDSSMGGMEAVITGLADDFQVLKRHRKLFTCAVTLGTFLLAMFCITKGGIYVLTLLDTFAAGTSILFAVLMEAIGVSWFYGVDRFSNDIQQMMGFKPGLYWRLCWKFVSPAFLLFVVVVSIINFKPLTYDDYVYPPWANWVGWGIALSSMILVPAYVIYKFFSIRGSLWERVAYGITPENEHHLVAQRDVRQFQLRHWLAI

SMILES: CNC(C)C(=O)c1ccc2c(c1)OCO2 (centres unmarked) [methylone, 3,4-methylenedioxy-N-methylcathinone]
- Ki [1]: 1150 nM
- locomotor activity in OFT (rats; methylone 15 or 30 mg/kg IP): significant increase in locomotor activity
- time spent in the center of the open field (rats): significantly increases the time spent in the center
- time spent in the center of the open field (rats; listed as Methylone): significantly increased center time
- head-twitch behaviors (C57BL/6J mice): no effect on head-twitch behaviors at any dose tested
